The structures appear in SMILES notation.

Assay [1] deals with RAW264.7 phosphorylated c-Jun (Ser63). In words: RAW264.7 phosphorylated c-Jun whole cell assay. In kind it is cell-based. The settings on record: Mus musculus; cytological assay, activity level; lipopolysaccharide-activated RAW264.7 cells, phospho-c-Jun (Ser63) ELISA. As for the experimental part: RAW264.7 (ATCC TIB-71) cells were purchased from BeNa Culture Collection and maintained in a high-glucose DMEM medium (Gibco) containing 10% fetal bovine serum (Gibco) and 1% penicillin-streptomycin (Gibco). All cells were cultured at 37° C. in 95% air and 5% CO2. All cells were seeded into 120 μL of cell culture medium in a 96-well plate at a density of 2×10^5 cells per well. The stock solution of compound (15 mM) was serially diluted in DMSO (Sigma) and further diluted in growth medium, and it was then added at 15 μL per well as a 10× concentrated solution, well mixed with the cells and incubated with the cells for 30 min. Concentration of the compound vehicle (DMSO) in each well was 0.2%. After incubation for 30 min, the cells were activated with […] lipopolysaccharide (Sigma). Lipopolysaccharide was added to the growth medium as a 10× concentrated solution at 15 μL per well. The cell plate was incubated for 1 h, and then all the medium was removed. The level of C-Jun protein with phosphorylation of serine at site 63 was measured using the whole cell lysate kit-phosphorylated C-Jun assay (PathScan® Phospho-c-Jun (Ser63) Sandwich ELISA Kit) (CST, 7145C) according to the manufacturer's instructions.

The target in another assay is T1, JNK1 kinase (Homo sapiens, UniProt P45983).
T1 construct: purchased Carna Biosciences 04-163
In words: JNK1 activity screening (time-resolved fluorometric HTRF kinase assay). The settings on record: enzymatic assay, activity level. The class given is biochemical. As to the method: JNK1 activity screening. JNK1 activity was detected using a 96-well (Cisbio, 66PL96025) time-resolved fluorometric assay. The JNK1 assay was conducted in the following assay buffer: 10 mM MgCl2 (Sigma, M1028), 1 mM MnCl2 (Sigma, M1787), 1 mM DTT (Sigma, D0632) and 1× Enzymatic buffer/kinase (Cisbio, 62EZBFDC). By using the assay buffer, 3 μL of 0.1 ng/μL JNK1 kinase (Carna Biosciences, 04-163) was added to a 96-well microplate, and then 4 μL of a compound diluted appropriately (with a DMSO content of 2.5%) was added. The resulting mixture was incubated at room temperature for 0.5 h. To start the reaction, the assay buffer was used to mix 0.003 μM ATP (Aladdin, A7699) and 30 μM substrate ATF2-GST fusion (Cisbio, 64CUS000AFPEB), and 3 μL of the mixed solution was added to the microplate. The resulting mixture was incubated at room temperature for 2.5 h. HTRF detection buffer ([…], 62SDBRDD) was used then to prepare a mixture of 5 μg/mL MAb Anti GST-XL665 (Cisbio, 61GSTXLA) and 0.045 μg/mL PAb Anti-phospho ATF2-K (Cisbio, 61P12KAZ), and 10 μL of the mixture was added to the plate to terminate the reaction. After incubation for about 12 h, the plate was read on a Perkin-Elmer Envision reader.

T1 sequence (P45983 whole entry): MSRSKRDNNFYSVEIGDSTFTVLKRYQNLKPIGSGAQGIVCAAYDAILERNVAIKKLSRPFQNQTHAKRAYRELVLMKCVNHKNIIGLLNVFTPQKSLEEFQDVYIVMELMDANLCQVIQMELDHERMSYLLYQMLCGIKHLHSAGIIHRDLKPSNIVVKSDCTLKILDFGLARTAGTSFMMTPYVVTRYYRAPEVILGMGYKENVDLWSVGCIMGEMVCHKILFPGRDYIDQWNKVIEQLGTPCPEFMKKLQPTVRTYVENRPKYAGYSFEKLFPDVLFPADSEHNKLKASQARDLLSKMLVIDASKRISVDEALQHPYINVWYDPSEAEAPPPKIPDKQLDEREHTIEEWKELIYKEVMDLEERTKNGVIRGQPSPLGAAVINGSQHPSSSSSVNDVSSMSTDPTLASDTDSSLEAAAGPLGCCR

In the case of `C[C@@H]1CC[C@@H](Nc2nc(NC(C)(C)C)ncc2/C(N)=N\O)C[C@H]1O` [Compound T002, (E)-2-(tert-butylamino)-N′-hydroxy-4-(((1R,3R,4R)-3-hydroxy-4-methylcyclohexyl)amino)pyrimidine-5-carboximidamide], the results for the IC50 (in assay [1]; at JNK1 kinase) were 100 to 500 nM and below 100 nM, respectively.

Regarding `C[C@@H]1CC[C@@H](Nc2nc(NC3CC4(COC4)C3)ncc2C(N)=O)C[C@H]1O` [Compound T015, 2-((2-oxaspiro[3.3]heptan-6-yl)amino)-4-(((1R,3R,4R)-3-hydroxy-4-methylcyclohexyl)amino)pyrimidine-5-carboxamide], the IC50 is 500 to 1000 nM in assay [1] and below 100 nM on JNK1 kinase.

With `C[C@@H]1CC[C@@H](Nc2cc(NC3CC3)ncc2C(N)=O)C[C@H]1O` [Compound T058, 6-(cyclopropylamino)-4-(((1R,3R,4R)-3-hydroxy-4-methylcyclohexyl)amino) nicotinamide], the IC50 (in assay [1]; at JNK1 kinase) was above 1000 nM each time.

With `C[C@@H]1CC[C@@H](Nc2nc(NC(C)(C)C)ncc2CF)C[C@H]1O` [Compound T030, (1R,2R,5R)-5-((2-(tert-butylamino)-5-(fluoromethyl)pyrimidin-4-yl)amino)-2-methylcyclohex-1-ol], the IC50 (in assay [1]; against JNK1 kinase) was above 1000 nM throughout.

Take `C[C@@H]1CC[C@@H](Nc2nc(NC(C)(C)C)ncc2N)C[C@H]1O` [Compound T063, (1R,2R,5R)-5-((5-amino-2-(tert-butylamino)pyrimidin-4-yl)amino)-2-methylcyclohexan-1-ol]: the IC50 (in assay [1]; at JNK1 kinase) was above 1000 nM each time.

For the compound `C[C@@H]1CC[C@@H](Nc2nc(NC(C)(C)C)ncc2-n2cncn2)C[C@H]1O` [Compound T035, (1R,2R,5R)-5-((2-(tert-butylamino)-5-(1H-1,2,4-triazol-1-yl)pyrimidin-4-yl)amino)-2-methylcyclohexan-1-ol], the figures for the IC50 (in assay [1]; on JNK1 kinase) were 500 to 1000 nM and 100 to 500 nM, respectively.

For the compound `C[C@@H]1CC[C@@H](Nc2cc(NC(C)(C)F)ncc2C(N)=O)C[C@H]1O` [Compound T057, 6-((2-fluoropropan-2-yl)amino)-4-(((1R, 3R,4R)-3-hydroxy-4-methylcyclohexyl)amino)nicotinamide], the IC50 (in assay [1]; at JNK1 kinase) was above 1000 nM in each case.

On to `C[C@@H]1CC[C@@H](Nc2nc(NC(C)(C)C)ncc2C(=O)N2CC2)C[C@H]1O` [Compound T027, Aziridin-1-yl(2-(tert-butylamino)-4-(((1R, 3R,4R)-3-hydroxy-4-methylcyclohexyl)amino)pyrimidin-5-yl)methanone], for which the values for the IC50 (in assay [1]; at JNK1 kinase) were above 1000 nM and 500 to 1000 nM, respectively.

On to `CC(C)(C)Nc1ncc(C(N)=O)c(Nc2cccc(CO)c2)n1` [Compound T026, 2-(tert-butylamino)-4-((3-(hydroxymethyl)phenyl)amino)pyrimidine-5-carboxamide], for which the IC50 is 100 to 500 nM in assay [1] and below 100 nM on JNK1 kinase.

For the compound `C[C@@H]1CC[C@@H](Nc2cc(NC3CCCC(O)C3)ncc2C(N)=O)C[C@H]1O` (stereo partly drawn) [Compound T053, 4-(((1R,3R,4R)-3-hydroxy-4-methylcyclohexyl)amino)-6-((3-hydroxycyclohexyl)amino) nicotinamide], the IC50 (in assay [1]; against JNK1 kinase) was above 1000 nM throughout.

Regarding `C[C@@H]1CC[C@@H](Nc2cc(NC(C)(C)C)ncc2C(N)=O)C[C@H]1O` [Compound T045, 6-(tert-butylamino)-4-(((1R,3R,4R)-3-hydroxy-4-methylcyclohexyl)amino) nicotinamide], the IC50 (in assay [1]; on JNK1 kinase) was above 1000 nM throughout.

Take `CC(=O)c1cnc(NC(C)(C)C(F)(F)F)nc1N[C@@H]1CC[C@@H](C)[C@H](O)C1` [Compound T071, 1-(4-(((1R,3R,4R)-3-hydroxy-4-methylcyclohexyl)amino)-2-((1,1,1-trifluoro-2-methylpropan-2-yl)amino)pyrimidin-5-yl)ethan-1-one]: the IC50 in assay [1] is above 1000 nM; against JNK1 kinase it was 500 to 1000 nM.

As to `CC(C)(C)Nc1ncc(C(N)=O)c(N2CC(C(C)(C)O)C2)n1` [Compound T020, 2-(tert-butylamino)-4-(3-(2-hydroxypropan-2-yl)azetidin-1-yl) pyrimidine-5-carboxamide], the results for the IC50 (in assay [1]; at JNK1 kinase) were 500 to 1000 nM and 100 to 500 nM, respectively.

`C[C@@H]1CC[C@@H](Nc2nc(NC(C)(C)C)ncc2Br)C[C@H]1O` [Compound T033, (1R,2R,5R)-5-((5-bromo-2-(tert-butylamino)pyrimidin-4-yl)amino)-2-methylcyclohexan-1-ol]: the IC50 in assay [1] was 500 to 1000 nM; at JNK1 kinase, below 100 nM.

Regarding `C[C@@H]1CC[C@@H](Nc2nc(NC(C)(C)C)ncc2C#N)C[C@H]1O` [Compound T001A, 2-(tert-butylamino)-4-(((1R,3R,4R)-3-hydroxy-4-methylcyclohexyl)amino) pyrimidine-5-carbonitrile], the IC50 (in assay [1]; against JNK1 kinase) was 100 to 500 nM each time.

Turning to `C[C@@H]1CC[C@@H](Nc2cc(NC3CCC3O)ncc2C(N)=O)C[C@H]1O` (stereo partly drawn) [Compound T050, 4-(((1R,3R,4R)-3-hydroxy-4-methylcyclohexyl)amino)-6-((2-hydroxycyclobutyl)amino)nicotinamide], the IC50 in assay [1] is above 1000 nM; against JNK1 kinase it was 500 to 1000 nM.

Consider `CC(C)(C)Nc1ncc(C(N)=O)c(N2CCC(CO)C2)n1` (stereo not shown) [Compound T019, 2-(tert-butylamino)-4-(3-(hydroxymethyl)pyrrolidin-1-yl)pyrimidine-5-carboxamide], for which the IC50 was in the range of 500 to 1000 nM in assay [1] and 100 to 500 nM against JNK1 kinase.

Turning to `COC(=O)c1cnc(NC(C)(C)C)nc1N[C@@H]1CC[C@@H](C)[C@H](O)C1` [Compound T005A, Methyl 2-(tert-butylamino)-4-(((IR,3R,4R)-3-hydroxy-4-methylcyclohexyl)amino) pyrimidine-5-carboxylate], the 50% inhibitory concentration (IC50) (in assay [1]; on JNK1 kinase) was above 1000 nM each time.

`CC(=O)c1cnc(NC(C)(C)C)nc1N[C@@H]1CC[C@@H](C)[C@H](O)C1` [Compound T067, 1-(2-(tert-butylamino)-4-(((1R,3R,4R)-3-hydroxy-4-methylcyclohexyl)amino)pyrimidin-5-yl)ethan-1-one]: the half-maximal inhibitory concentration (IC50) (in assay [1]; against JNK1 kinase) was 100 to 500 nM in each case.

For the compound `CC(C)(C)Nc1ncc(C(N)=O)c(NC2CCC(=O)NC2)n1` (stereo not shown) [Compound T016, 2-(tert-butylamino)-4-((6-oxopiperidin-3-yl)amino)pyrimidine-5-carboxamide], the IC50 in assay [1] was 500 to 1000 nM; against JNK1 kinase, below 100 nM.

In the case of `C[C@@H]1CC[C@@H](Nc2cc(NC3CC(O)C3)ncc2C(N)=O)C[C@H]1O` (stereo partly drawn) [Compound T051, 4-(((1R,3R,4R)-3-hydroxy-4-methylcyclohexyl)amino)-6-((3-hydroxycyclobutyl)amino)nicotinamide], the results for the IC50 (in assay [1]; on JNK1 kinase) were above 1000 nM and 500 to 1000 nM, respectively.

Take `C[C@@H]1CC[C@@H](Nc2cc(NC3CC3O)ncc2C(N)=O)C[C@H]1O` (stereo partly drawn) [Compound T059, 4-(((1R,3R,4R)-3-hydroxy-4-methylcyclohexyl)amino)-6-((2-hydroxycyclopropyl)amino)nicotinamide]: the IC50 (in assay [1]; on JNK1 kinase) was above 1000 nM throughout.

Take `C[C@@H]1CC[C@@H](Nc2nc(NC(C)(C)C)ncc2C(=O)C2CC2)C[C@H]1O` [Compound T068, (2-(tert-butylamino)-4-(((1R,3R,4R)-3-hydroxy-4-methylcyclohexyl)amino)pyrimidin-5-yl)(cyclopropyl)methanone]: the IC50 (in assay [1]; on JNK1 kinase) was 100 to 500 nM in each case.

Regarding `COc1ccc(Oc2ncc(C(N)=O)c(N[C@@H]3CC[C@@H](C)[C@H](O)C3)n2)cc1` [Compound T040, 4-(((1R,3R,4R)-3-hydroxy-4-methylcyclohexyl)amino)-2-(4-methoxyphenoxy)pyrimidine-5-carboxamide], the IC50 in assay [1] was in the range of 500 to 1000 nM; on JNK1 kinase, 100 to 500 nM.

Consider `CC(C)(C)Nc1ncc(C(N)=O)c(NCC2CCC(=O)N2)n1` (stereo not shown) [Compound T009, 2-(tert-butylamino)-4-(((5-oxopyrrolidin-2-yl)methyl)amino)pyrimidine-5-carboxamide], for which the IC50 (in assay [1]; against JNK1 kinase) was above 1000 nM each time.

Consider `CC(C)(C)Nc1ncc(C(N)=O)c(N2CCC(O)CC2)n1` [Compound T006, 2-(tert-butylamino)-4-(4-hydroxypiperidin-l-yl)pyrimidine-5-carboxamide], for which the half-maximal inhibitory concentration (IC50) (in assay [1]; against JNK1 kinase) was above 1000 nM each time.

The values are drawn from patent publication US20230104283A1, “JNK INHIBITOR, AND PHARMACEUTICAL COMPOSITION AND USE THEREOF” (WUHAN LL SCIENCE AND TECHNOLOGY DEVELOPMENT CO. , LTD, priority 2019, published 2023).
